These results are taken from publication PMC3430621, “HPLC–MS/MS Analysis of a Traditional Chinese Medical Formulation of Bu-Yang-Huan-Wu-Tang and Its Pharmacokinetics after Oral Administration to Rats” (PLoS ONE, 2012).

Where two headings read alike, the source gives them in different places.

The nature of data set [1]: Stability of the analytes in rat plasma samples (freeze-thaw, short-term, long-term, autosampler). Format: in vitro ADME. The settings on record: n = 3; for Stability (%) Autosampler stability: autosampler 8°C 12 h; for Stability (%) Short-term stability: room temperature 6 h; for Stability (%) Freeze-thaw stability: three freeze-thaw cycles; for Stability (%) Long-term stability: −20°C 14 days. On the procedure: Stability was also assessed using the low, medium and high concentrations of analytes. Freeze-thaw stability was assessed over three freeze-thaw cycles. Short-term stability was determined by placing the samples at room temperature for 6 h. Long-term stability was evaluated by analyzing samples kept at −20°C for 14 days. Autosampler stability was determined by maintaining the samples at the autosampler temperature (8°C) for 12 h. All stabilities were calculating as the ratio of average concentration and freshly prepared samples.

Data set [2] can be described thus: Pharmacokinetics in conscious freely moving rats after oral administration of BYHWT extract (HPLC-MS/MS of plasma). Format: in vivo, Sprague-Dawley rats. An excerpt: The protocol listed below has been reviewed and approved by the Institutional Animal Care and Use Committee (IACUC; approval number 1010409) by the Institutional Animal Experimentation Committee of the National Yang-Ming University. Male pathogen-free Sprague-Dawley rats (250±50 g body weight) were obtained from the Laboratory Animal Center of National Yang Ming University. The animals had free access to food (Laboratory rodent diet 5P14, PMI Feeds, Richmond, IN, USA) and water was allowed at all times. All animal experiments followed the National Yang-Ming University guidelines and procedures for the care of laboratory animals. […] Experimental rats were initially anesthetized with pentobarbital (50 mg/kg, i.p.), and polyethylene tubing was implanted in the right jugular vein for blood sampling. The tube crossed the subcutaneous tissue and was fixed at its exit from the dorsal neck region. The patency tubing was maintained by filling with heparinized saline (20 units/mL). After surgery, the rats were placed in experimental cages and allowed to recuperate for one day. The rats were kept fasted for 12 h and water were available ad libitum before the BYHWT administration. […] In our study, the dose of BYHWT (10 g/kg) was appropriate for oral administration in rats. […] The condensed blood collection in the absorption phase is to figure out the maximum concentration and the time when it reaches the maximum concentration. The time points in the elimination phase are not close. This strategy is commonly used in the pharmacokinetic studies but the total blood consumption should not be over 20% of body blood. In these experimental rats, the total blood sampling volume is within 20% during 12 h. Plasma was separated by centrifuging the blood sample at 6000 rpm for 10 min at 4°C. […] The samples were vortexed and centrifuged at 16,100×g for 10 min. In our micro-analysis, less than 200 μL is needed. Actually, the collected blood volume is around 120-150 μL for each time point. After centrifugation, the plasma samples (50 μL) were vortex-mixed with 100 μL of acetonitrile. The supernatants were collected and filtered. Around 20 μL aliquot of the supernatants was transferred into the vial for analysis by HPLC-MS/MS system. The acetonitrile but not the real sample was used in the needle pre-wash standard procedure [19]. The LC-MS/MS system consisted of an Agilent 1100 series LC with automatic liquid chromatographic sampler, injector, bi-pump and degasser; and Applied Biosystems/MDS Sciex API 3000 tandem quadrupole mass spectrometry equipped with electrospray ionization (ESI) interface using the following parameters: nebulizer gas (NEB):10, curtain gas (CUR): 7, collisionally activated dissociation gas (CAD): 12, ionspray voltage (IS): 5000 V, turbo ionspray temperature (TEM): 450°C. Nitrogen was used in all cases. The mass spectrometer was operated in the positive ion detection mode. […] The following linear gradient program was applied to the analyte with the mobile phase consisting of methanol (0.1% formic acid, solvent A) and NH4OAc (0.1% formic acid, solvent B): 0-1 min: 30-70% A; 1-2 min 70-90%; 2-8 min: 90-90%; 8-9 min: 90-30%, 9-18 min: 30-30%, v/v. […] The flow rate was maintained at […]. Pharmacokinetic parameters including maximum plasma concentration (Cmax), time to reach the maximum concentrations (Tmax), half-life (t1/2), area under concentration-time curve (AUC) and oral clearance (CL) were estimated by a non-compartmental analysis using the pharmacokinetic program, WinNonlin Standard Edition Version 1.1 (Scientific Consulting, Apex, NC, USA). All results were expressed as average mean ± standard deviation (S.D.). ANOVA was used to evaluate differences, and a value of P<0.05 was taken as statistically significant.

On the set-up of data set [3]: method as in PMID 17931809. The note with it: cited from earlier work.
Setting [4] is: male, Sprague-Dawley, rat, in vivo, po, 10 g/kg.
[5] abbreviates: male, Sprague-Dawley, po, rat plasma, BYHWT extract 10 g/kg p.o., n = 6, read-out: Cmax.
[6] abbreviates: male, Sprague-Dawley, po, rat plasma, BYHWT extract 10 g/kg p.o., n = 6, read-out: Tmax (converted).
Where [7] appears, read: male, Sprague-Dawley, po, rat plasma, BYHWT extract 10 g/kg p.o., n = 6, read-out: t1/2.
Setting [8] is: rat plasma, BYHWT extract 10 g/kg p.o.

As usually defined, the Cmax is the highest concentration seen after dosing. The Tmax is the time from dosing to the highest level. For orientation: AUC means the area under the concentration-time curve, a measure of exposure. As for `CC(=O)OC1C(O)COC(OC2CCC34CC35CCC3(C)C(C6(C)CCC(C(C)(C)O)O6)C(O)CC3(C)C5CC(OC3OC(CO)C(O)C(O)C3O)C4C2(C)C)C1OC(C)=O` (centres unmarked) [Astragaloside I, astragaloside I], in data set [1] (concentration 1 (µg/mL)), the “Stability (%) Autosampler stability” value was −5.3±7.9%, the “Stability (%) Short-term stability” value is on record as −3.6±8.0%, the “Stability (%) Freeze-thaw stability” value came out at 4.6±3.6% and the “Stability (%) Long-term stability” value is −14±17%. In addition, in data set [1] (concentration 10 (µg/mL)), the “Stability (%) Autosampler stability” value is recorded as 4.3±6.6%, the “Stability (%) Short-term stability” value was −4.1±10%, the “Stability (%) Freeze-thaw stability” value worked out at 3.8±2.7% and the “Stability (%) Long-term stability” value is −8.3±2.3%. Further, in data set [1] (concentration 100 (µg/mL)), the “Stability (%) Autosampler stability” value is −4.9±7.0%, the “Stability (%) Short-term stability” value is −6.4±6.4%, the “Stability (%) Freeze-thaw stability” value is given as −1.8±5.4% and the “Stability (%) Long-term stability” value was −27±12%. In data set [2] (male, Sprague-Dawley, rat, in vivo, po), this compound returned a Cl of 90.5 ± 14 mL/min/kg. For the same compound, in data set [2] (setting [4]), the highest level (Cmax) was 55 ± 7.8 ng/mL, the Tmax was 0.667 h and the half-life turned out to be 2.77 ± 0.467 h. The same compound had an exposure (AUC) in data set [2] (rat, in vivo, po, 10 g/kg) of 277 ± 43.3 ng·h/mL.
As for `CCC/C=C1\OC(=O)C2=C1CCC=C2` [Ligustilide, ligustilide], in data set [1] (concentration 1 (µg/mL)), the “Stability (%) Autosampler stability” value was 2.0±10%, the “Stability (%) Short-term stability” value came out at 14±11%, the “Stability (%) Freeze-thaw stability” value is 8.7±5.9% and the “Stability (%) Long-term stability” value is given as 6.7±10%. For the same compound, in data set [1] (concentration 10 (µg/mL)), the “Stability (%) Autosampler stability” value is given as 13±7.2%, the “Stability (%) Short-term stability” value was determined as 11±10%, the “Stability (%) Freeze-thaw stability” value stood at 2.7±2.2% and the “Stability (%) Long-term stability” value is recorded as 5.0±14%. Further, in data set [1] (concentration 100 (µg/mL)), the “Stability (%) Autosampler stability” value was −1.6±10%, the “Stability (%) Short-term stability” value is recorded as 12±7.5%, the “Stability (%) Freeze-thaw stability” value worked out at 6.5±1.4% and the “Stability (%) Long-term stability” value stood at 23±12%. In addition, the Cmax in data set [2] (setting [5]) was 7.8 ± 0.2 ng/mL. For the same compound, the Tmax in data set [2] (setting [6]) was 0.75 h. For the same compound, the half-life in data set [2] (setting [7]) was determined as 4.45 ± 0.02 h. Besides, the “absorption phase in the plasma concentration-time curve” value (“absorption phase” for short) in data set [2] (setting [8]) is reported as “double-peak absorption phase”.
With `COc1ccc(-c2coc3cc(O)ccc3c2=O)cc1O` [Calycosin, calycosin], in data set [1] (concentration 10 (µg/mL)), the “Stability (%) Autosampler stability” value is given as −3.5±11%, the “Stability (%) Short-term stability” value was determined as 1.4±11%, the “Stability (%) Freeze-thaw stability” value came to 9.6±4.7% and the “Stability (%) Long-term stability” value is listed as 2.5±5.7%. Also, in data set [1] (concentration 100 (µg/mL)), the “Stability (%) Autosampler stability” value was −2.2±3.5%, the “Stability (%) Short-term stability” value is recorded as 14±12%, the “Stability (%) Freeze-thaw stability” value is 8.6±3.8% and the “Stability (%) Long-term stability” value stood at 17±5.2%. Also, in data set [1] (concentration 1000 (µg/mL)), the “Stability (%) Autosampler stability” value is 7.1±4.9%, the “Stability (%) Short-term stability” value was 13±7.3%, the “Stability (%) Freeze-thaw stability” value worked out at 2.9±4.5% and the “Stability (%) Long-term stability” value worked out at 21±12%. The Cmax in data set [2] (setting [5]) worked out at 1230 ± 171 ng/mL. Moreover, the Tmax in data set [2] (setting [6]) is 0.667 h. For the same compound, the half-life in data set [2] (setting [7]) is 1.25 ± 0.183 h. The “absorption phase” value in data set [2] (setting [8]) was “single and plateau absorption phase”. Also, the area under the curve (AUC) in data set [2] (rat plasma, BYHWT extract 10 g/kg p.o., n = 6) was 5130 ± 1220 ng·h/mL.
As to `COc1ccc(-c2coc3cc(O[C@@H]4O[C@H](CO)[C@@H](O)[C@H](O)[C@H]4O)ccc3c2=O)cc1O` [Calycosin-7-O-β-D-glucoside, calycosin-7-O-β-D-glucoside], in data set [1] (concentration 1 (µg/mL)), the “Stability (%) Autosampler stability” value was −8.4±12%, the “Stability (%) Short-term stability” value was 2.5±11%, the “Stability (%) Freeze-thaw stability” value was 5.8±6.1% and the “Stability (%) Long-term stability” value amounted to 6.4±12%. Further, in data set [1] (concentration 10 (µg/mL)), the “Stability (%) Autosampler stability” value was 2.1±9.1%, the “Stability (%) Short-term stability” value turned out to be 7.3±12%, the “Stability (%) Freeze-thaw stability” value is 4.9±3.5% and the “Stability (%) Long-term stability” value turned out to be 23±13%. For the same compound, in data set [1] (concentration 100 (µg/mL)), the “Stability (%) Autosampler stability” value is on record as 3.5±7.9%, the “Stability (%) Short-term stability” value is −0.1±0.9%, the “Stability (%) Freeze-thaw stability” value is listed as 7.0±1.2% and the “Stability (%) Long-term stability” value was 20±12%. The Cmax in data set [2] (setting [5]) is 18 ± 4.1 ng/mL. Besides, the Tmax in data set [2] (setting [6]) is 0.533 h. Further, the half-life in data set [2] (setting [7]) was 5.63 ± 2.2 h. Besides, the “absorption phase” value in data set [2] (setting [8]) was “single and plateau absorption phase”.
Regarding `COc1cc2c(c(OC)c1OC)-c1ccc(OC)c(=O)cc1[C@@H](NC(C)=O)CC2` [colchicine], the AUC in data set [3] (donor rats) was 847.7 ± 141.0 µg·min/mL; in data set [3] (recipient rats), 55.5 ± 29.2 µg·min/mL.
